# Results: ChEMBL document CHEMBL5579851, “Synthesis and antifungal evaluation of novel triazole derivatives bearing a pyrazole-methoxyl moiety” (Eur J Med Chem, 2024)
# The source made the active and inactive calls. The rule behind the calls is not given here.
# Columns and labels:
# Candida albicans [1] = assay: Antifungal activity against Candida albicans SC5314 assessed as inhibition of fungal growth incubated for 48 hrs by CLSI based broth microdilution assay; assay type: functional
# Candida albicans [2] = assay: Antifungal activity against Candida albicans 10231 assessed as inhibition of fungal growth incubated for 48 hrs by CLSI based broth microdilution assay; assay type: functional
# Cryptococcus neoformans = assay: Antifungal activity against Cryptococcus neoformans 32609 assessed as inhibition of fungal growth incubated for 72 hrs by CLSI based broth microdilution assay; assay type: functional
# Nakaseomyces glabratus [3] = assay: Antifungal activity against Candida glabrata 537 assessed as inhibition of fungal growth incubated for 48 hrs by CLSI based broth microdilution assay; assay type: functional
# Candida parapsilosis [4] = assay: Antifungal activity against Candida parapsilosis 22019 assessed as inhibition of fungal growth incubated for 48 hrs by CLSI based broth microdilution assay; assay type: functional; conditions: Lodderomyces parapsilosis
# Pichia kudriavzevii = assay: Antifungal activity against Candida krusei 4996 assessed as inhibition of fungal growth incubated for 48 hrs by CLSI based broth microdilution assay; assay type: functional
# Candida tropicalis [5] = assay: Antifungal activity against Candida tropicalis 8915 assessed as inhibition of fungal growth incubated for 48 hrs by CLSI based broth microdilution assay; assay type: functional
# Candida albicans [6] = assay: Antifungal activity against fluconazole-resistant Candida albicans 901 assessed as inhibition of fungal growth incubated for 48 hrs by CLSI based broth microdilution assay; assay type: functional
# Candida albicans [7] = assay: Antifungal activity against fluconazole-resistant Candida albicans 904 assessed as inhibition of fungal growth incubated for 48 hrs by CLSI based broth microdilution assay; assay type: functional
# [Candida] auris [8] = Antifungal activity against fluconazole-resistant Candida auris 891 assessed as inhibition of fungal growth incubated for 48 hrs by CLSI based broth microdilution assay; assay type: functional; conditions: Candidozyma auris
# [Candida] auris [9] = Antifungal activity against fluconazole-resistant Candida auris 918 assessed as inhibition of fungal growth incubated for 48 hrs by CLSI based broth microdilution assay; assay type: functional; conditions: Candidozyma auris
# [Candida] auris [10] = Antifungal activity against fluconazole-resistant Candida auris 919 assessed as inhibition of fungal growth incubated for 48 hrs by CLSI based broth microdilution assay; assay type: functional; conditions: Candidozyma auris
# Saccharomyces cerevisiae [11] = assay: Antifungal activity against recombinant Saccharomyces cerevisiae Y525 overexpressing CaMdr1 assessed as inhibition of fungal growth incubated for 48 hrs by CLSI based broth microdilution assay; assay type: functional
# Saccharomyces cerevisiae [12] = assay: Antifungal activity against recombinant Saccharomyces cerevisiae Y570 overexpressing CaCdr1 assessed as inhibition of fungal growth incubated for 48 hrs by CLSI based broth microdilution assay; assay type: functional
# Saccharomyces cerevisiae [13] = assay: Antifungal activity against recombinant Saccharomyces cerevisiae Y2765 overexpressing CauMdr1 assessed as inhibition of fungal growth incubated for 48 hrs by CLSI based broth microdilution assay; assay type: functional
# Saccharomyces cerevisiae [14] = assay: Antifungal activity against recombinant Saccharomyces cerevisiae Y2766 overexpressing CauCdr1 assessed as inhibition of fungal growth incubated for 48 hrs by CLSI based broth microdilution assay; assay type: functional
# Saccharomyces cerevisiae [15] = assay: Antifungal activity against recombinant Saccharomyces cerevisiae Y2411 overexpressing ScErg11 assessed as inhibition of fungal growth incubated for 48 hrs by CLSI based broth microdilution assay; assay type: functional
# Saccharomyces cerevisiae [16] = assay: Antifungal activity against recombinant Saccharomyces cerevisiae Y2300 overexpressing ScErg11 assessed as inhibition of fungal growth incubated for 48 hrs by CLSI based broth microdilution assay; assay type: functional
# Saccharomyces cerevisiae [17] = assay: Antifungal activity against recombinant Saccharomyces cerevisiae Y2462 overexpressing ScErg11/ScNcp1 assessed as inhibition of fungal growth incubated for 48 hrs by CLSI based broth microdilution assay; assay type: functional
# Saccharomyces cerevisiae [18] = assay: Antifungal activity against recombinant Saccharomyces cerevisiae Y2459 overexpressing CaErg11/CaCpr assessed as inhibition of fungal growth incubated for 48 hrs by CLSI based broth microdilution assay; assay type: functional
# Saccharomyces cerevisiae [19] = assay: Antifungal activity against recombinant Saccharomyces cerevisiae Y2374 overexpressing CgErg11 assessed as inhibition of fungal growth incubated for 48 hrs by CLSI based broth microdilution assay; assay type: functional
# Saccharomyces cerevisiae [20] = assay: Antifungal activity against recombinant Saccharomyces cerevisiae Y2721 overexpressing CpErg11/CpCpr assessed as inhibition of fungal growth incubated for 48 hrs by CLSI based broth microdilution assay; assay type: functional
# Saccharomyces cerevisiae [21] = assay: Antifungal activity against recombinant Saccharomyces cerevisiae Y2767 overexpressing CauErg11 assessed as inhibition of fungal growth incubated for 48 hrs by CLSI based broth microdilution assay; assay type: functional
# Saccharomyces cerevisiae [22] = assay: Antifungal activity against recombinant Saccharomyces cerevisiae Y2711 overexpressing CnErg11 assessed as inhibition of fungal growth incubated for 48 hrs by CLSI based broth microdilution assay; assay type: functional
# Saccharomyces cerevisiae [23] = assay: Antifungal activity against recombinant Saccharomyces cerevisiae Y2301 overexpressing ScErg11 Y140F mutant assessed as inhibition of fungal growth incubated for 48 hrs by CLSI based broth microdilution assay; assay type: functional
# Saccharomyces cerevisiae [24] = assay: Antifungal activity against recombinant Saccharomyces cerevisiae Y2513 overexpressing ScErg11 Y140H mutant assessed as inhibition of fungal growth incubated for 48 hrs by CLSI based broth microdilution assay; assay type: functional
# Saccharomyces cerevisiae [25] = assay: Antifungal activity against recombinant Saccharomyces cerevisiae Y2716 overexpressing CpErg11 Y132F mutant/ CpCpr assessed as inhibition of fungal growth incubated for 48 hrs by CLSI based broth microdilution assay; assay type: functional
# Saccharomyces cerevisiae [26] = assay: Antifungal activity against recombinant Saccharomyces cerevisiae Y2768 overexpressing CauErg11 T132F mutant assessed as inhibition of fungal growth incubated for 48 hrs by CLSI based broth microdilution assay; assay type: functional
# Saccharomyces cerevisiae [27] = assay: Antifungal activity against recombinant Saccharomyces cerevisiae Y2769 overexpressing CauErg11 K143R mutant assessed as inhibition of fungal growth incubated for 48 hrs by CLSI based broth microdilution assay; assay type: functional
# Candida tropicalis [28] = assay: Potency index, ratio of ravuconazole MIC to test compound MIC for antifungal activity against Candida tropicalis 8915 assessed as inhibition of fungal growth incubated for 48 hrs by CLSI based broth microdilution assay; assay type: functional
# Candida tropicalis [29] = assay: Potency index, ratio of fluconazole MIC to test compound MIC for antifungal activity against Candida tropicalis 8915 assessed as inhibition of fungal growth incubated for 48 hrs by CLSI based broth microdilution assay; assay type: functional
# Saccharomyces cerevisiae [30] = assay: Selectivity index, ratio of MIC for antifungal activity against recombinant Saccharomyces cerevisiae Y525 overexpressing CaMdr1 to MIC for antifungal activity against recombinant Saccharomyces cerevisiae Y2411 overexpressing ScErg11; assay type: functional
# Candida albicans [31] = assay: Antifungal activity against Candida albicans SC5314 assessed as inhibition of fungal growth at 0.125 ug/ml after 48 hrs by TECAN plate reader analysis relative to control; assay type: functional
# Candida parapsilosis [32] = assay: Antifungal activity against Candida parapsilosis 22019 assessed as inhibition of fungal growth at 0.125 ug/ml measured up to 48 hrs by TECAN plate reader analysis; assay type: functional, organism-based; conditions: dose 0.125 µg/ml
# Nakaseomyces glabratus [33] = assay: Antifungal activity against Candida glabrata 537 assessed as inhibition of fungal growth at 2 ug/ml measured up to 48 hrs by TECAN plate reader analysis; assay type: functional, organism-based; conditions: dose 2.0 µg/ml
# Candida albicans [34] = assay: Antifungal activity against Candida albicans SC5314 assessed as inhibition of hyphae length after 3 hrs by inverted microscopic analysis; assay type: functional, organism-based; conditions: dose 0.0625-1 µg/ml
# Candida albicans [35] = assay: Antifungal activity against Candida albicans SC5314 assessed as inhibition of hyphae formation at 0.625 ug/ml after 3 hrs by inverted microscopic analysis relative to control; assay type: functional
# Candida albicans [36] = assay: Antibiofilm activity against Candida albicans SC5314 assessed as inhibition of biofilm formation at 64 ug/mL incubated for 24 hrs by XTT assay relative to control; assay type: functional
# Candida albicans [37] = assay: Antibiofilm activity against Candida albicans SC5314 assessed as increase in matured biofilm distruption incubated for 24 hrs by XTT assay; assay type: functional, organism-based; conditions: dose 0.25-64 µg/ml
# Candida albicans [38] = assay: Antibiofilm activity against Candida albicans SC5314 assessed as increase in matured biofilm distruption at 64 ug/ml incubated for 24 hrs by XTT assay relative to control; assay type: functional; conditions: dose 64 µg/ml
# [39] = molecular target: T1, Lanosterol 14-alpha demethylase (Candida albicans (strain SC5314 / ATCC MYA-2876) (Yeast), UniProt P10613); assay: Inhibition of CYP51 in Candida albicans SC5314 assessed as ergosterol level at 0.0625 ug/ml after 8 hrs by GC-MS analysis (reference value: 86.2 %); design: scale not given: the % may be the effect or the level left; conditions: at 0.0625 µg/mL
# [40] = molecular target: T1, Lanosterol 14-alpha demethylase; assay: Inhibition of CYP51 in Candida albicans SC5314 assessed as lanosterol level at 0.0625 ug/ml after 8 hrs by GC-MS analysis (reference value: 5.9 %); design: scale not given: the % may be the effect or the level left; conditions: at 0.0625 µg/mL
# [41] = molecular target: T1, Lanosterol 14-alpha demethylase; assay: Inhibition of CYP51 in Candida albicans SC5314 assessed as 14alpha-methylfecosterol level at 0.0625 ug/ml after 8 hrs by GC-MS analysis relative to control; design: scale not given: the % may be the effect or the level left; conditions: at 0.0625 µg/mL
# [42] = molecular target: T1, Lanosterol 14-alpha demethylase; assay: Inhibition of CYP51 in Candida albicans SC5314 assessed as eburicol level at 0.0625 ug/ml after 8 hrs by GC-MS analysis relative to control; design: scale not given: the % may be the effect or the level left; conditions: at 0.0625 µg/mL
# [43] = molecular target: T1, Lanosterol 14-alpha demethylase; assay: Inhibition of CYP51 in Candida albicans SC5314 assessed as obtusifoliol level at 0.0625 ug/ml after 8 hrs by GC-MS analysis relative to control; design: scale not given: the % may be the effect or the level left; conditions: at 0.0625 µg/mL
# [44] = Cytotoxicity against HUVEC cells assessed as cell viability at 128 ug/ml incubated for 24 hrs by CCK-8 assay relative to control; assay type: toxicity, cell-based; conditions: human, at 128 µg/mL, read-out: Activity
# T1 sequence (P10613 whole entry): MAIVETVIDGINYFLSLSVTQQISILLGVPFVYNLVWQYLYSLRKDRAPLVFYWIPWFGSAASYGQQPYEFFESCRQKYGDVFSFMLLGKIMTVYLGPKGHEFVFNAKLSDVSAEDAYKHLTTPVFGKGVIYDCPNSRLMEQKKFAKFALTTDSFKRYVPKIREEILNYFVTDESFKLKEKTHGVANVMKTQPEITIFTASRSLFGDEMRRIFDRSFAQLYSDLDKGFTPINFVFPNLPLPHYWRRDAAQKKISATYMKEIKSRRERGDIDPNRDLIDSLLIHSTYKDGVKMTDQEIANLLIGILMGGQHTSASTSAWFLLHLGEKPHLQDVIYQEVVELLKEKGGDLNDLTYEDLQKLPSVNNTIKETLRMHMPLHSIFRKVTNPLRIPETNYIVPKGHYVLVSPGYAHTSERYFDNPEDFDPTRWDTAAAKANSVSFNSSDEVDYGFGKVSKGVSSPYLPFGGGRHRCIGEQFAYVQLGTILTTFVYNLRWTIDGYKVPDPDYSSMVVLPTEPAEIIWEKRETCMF
smiles,measurement,setting,value
C[C@@H](OCc1ccn(Cc2ccc(F)cc2)n1)[C@](O)(Cn1cncn1)c1ccc(F)cc1F,MIC,Candida albicans [1],≤ 0.125 µg/mL
same,MIC,Candida albicans [2],≤ 0.125 µg/mL
same,MIC,Cryptococcus neoformans,0.25 µg/mL
same,MIC,Nakaseomyces glabratus [3],≤ 0.125 µg/mL
same,MIC,Candida parapsilosis [4],0.25 µg/mL
same,MIC,Pichia kudriavzevii,4 µg/mL
same,MIC,Candida tropicalis [5],0.25 µg/mL
same,MIC,Candida albicans [6],2 µg/mL
same,MIC,Candida albicans [7],8 µg/mL
same,MIC,[Candida] auris [8],16 µg/mL
same,MIC,[Candida] auris [9],16 µg/mL
same,MIC,[Candida] auris [10],16 µg/mL
same,MIC,Saccharomyces cerevisiae [11],0.25 µg/mL
same,MIC,Saccharomyces cerevisiae [12],32 µg/mL
same,MIC,Saccharomyces cerevisiae [13],0.25 µg/mL
same,MIC,Saccharomyces cerevisiae [14],4 µg/mL
same,MIC,Saccharomyces cerevisiae [15],0.016 µg/mL
same,MIC,Saccharomyces cerevisiae [16],0.063 µg/mL
same,MIC,Saccharomyces cerevisiae [17],0.125 µg/mL
same,MIC,Saccharomyces cerevisiae [18],0.0313 µg/mL
same,MIC,Saccharomyces cerevisiae [19],0.0313 µg/mL
same,MIC,Saccharomyces cerevisiae [20],0.0313 µg/mL
same,MIC,Saccharomyces cerevisiae [21],0.0313 µg/mL
same,MIC,Saccharomyces cerevisiae [22],0.008 µg/mL
same,MIC,Saccharomyces cerevisiae [23],0.0313 µg/mL
same,MIC,Saccharomyces cerevisiae [24],0.016 µg/mL
same,MIC,Saccharomyces cerevisiae [25],0.125 µg/mL
same,MIC,Saccharomyces cerevisiae [26],0.063 µg/mL
same,MIC,Saccharomyces cerevisiae [27],0.063 µg/mL
same,Ratio,Candida tropicalis [28],32
same,Ratio,Candida tropicalis [29],256
same,Ratio,Saccharomyces cerevisiae [30],16
same,inhibition at 0.125 µg/mL,Candida albicans [31],100%
same,inhibition,Candida parapsilosis [32],Active
same,inhibition,Nakaseomyces glabratus [33],inactive
same,inhibition,Candida albicans [34],Dose-Dependent Effect
same,inhibition at 0.625 µg/mL,Candida albicans [35],100%
same,inhibition at 64 µg/mL,Candida albicans [36],> 55%
same,Activity,Candida albicans [37],Dose-Dependent Effect
same,Activity,Candida albicans [38],49.2%
same,Activity,[39],1.4%
same,Activity,[40],> 25%
same,Activity,[41],~ 20%
same,Activity,[42],~ 20%
same,Activity,[43],~ 20%
same,"viability at 24 h, 128 ug/ml",[44],75.8%
